From patent publication US7135475B2, “Amide substituted xanthine derivatives” (Hoffmann-La Roche Inc., priority 2002, dated 2006) come the findings set out here.

As a reminder, the melting point is the temperature of the solid-liquid transition. One may read the IC50 as the concentration that gives 50% inhibition.

In data set [1] the target is T1, recombinant human cytosolic PEPCK (Homo sapiens, UniProt P35558).
T1 sequence (P35558 1-622): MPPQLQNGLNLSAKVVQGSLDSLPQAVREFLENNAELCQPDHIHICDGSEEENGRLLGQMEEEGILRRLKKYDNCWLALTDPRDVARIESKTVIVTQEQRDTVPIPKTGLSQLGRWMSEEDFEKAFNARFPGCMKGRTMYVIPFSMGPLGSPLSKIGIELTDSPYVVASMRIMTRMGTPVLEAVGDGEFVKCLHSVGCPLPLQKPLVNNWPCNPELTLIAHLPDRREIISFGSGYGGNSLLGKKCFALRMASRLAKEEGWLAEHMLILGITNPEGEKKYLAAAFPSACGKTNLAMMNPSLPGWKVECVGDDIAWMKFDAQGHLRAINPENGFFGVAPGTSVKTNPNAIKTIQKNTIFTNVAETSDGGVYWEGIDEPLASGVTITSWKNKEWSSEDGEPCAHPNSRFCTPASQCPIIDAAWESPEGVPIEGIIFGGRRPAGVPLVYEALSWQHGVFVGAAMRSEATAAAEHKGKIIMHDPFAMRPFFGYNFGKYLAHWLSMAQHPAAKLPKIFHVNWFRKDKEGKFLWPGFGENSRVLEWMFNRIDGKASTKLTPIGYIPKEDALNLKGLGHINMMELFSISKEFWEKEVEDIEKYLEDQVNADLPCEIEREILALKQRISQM
Description: PEPCK enzyme assay (coupled pyruvate kinase/lactate dehydrogenase, absorbance at 340). The conditions noted are these: recombinant human cytosolic GST-PEPCK; GTP and OAA at 3 fold and 10 fold Km; final DMSO 10%; room temperature, twenty minutes; read-out: In vitro IC50. The data set is classed as biochemical. Here is the method:
E. coli cells expressing GST-PEPCK were suspended in 5 volumes of lysis buffer (50 mM Tris-hydroxymethyl aminomethyl (TRIS), 150 mM sodium chloride (NaCl), 10 mM ethylene-diametetraacetic acid (EDTA), 5 mM dithiothreitol(DTT), 1% Nonidet P-40, pH 7.4) in the presence of protease inhibitors, incubated with lysozyme at 200 micrograms/ml for 30 min. at room temperature, and sonicated 4×30 seconds at 4 degrees C. After centrifugation at 12,000×g for 20 min. to remove insoluble material, the supernatant was loaded onto glutathione Sepharose (Pharmacia), washed with lysis buffer followed by washing with lysis buffer in the absence of NP-40. GST-PEPCK was eluted with the same buffer containing 20 mM glutathione. The eluted protein was concentrated and dialyzed against 25 mM Hepes(N-[2-hydroxyethyl]piperazine-N′[2-ethanesulfonic acid), 150 mM NaCl, 2.5 mM EDTA, 5 mM DTT, 30% glycerol, pH 7.4, and stored at −20 ° C.
The inhibitory effect of the compounds of the present invention on PEPCK enzymatic activity was determined using recombinant human cytosolic PEPCK, expressed and purified from E.coli as a GST-fusion. Guanosine triphosphate (GTP) and manganese dependent PEPCK enzyme activity catalyzed the decarboxylation of oxalacetate leading to the formation of guanosine diphosphate (GDP) and phosphoenol pyruvate (PEP). This reaction is coupled to pyruvate kinase and lactate dehydrogenase catalyzed reactions and the overall reaction rate determined by measuring the change in absorbance at 340 nm (Chang, H. C. and Lane M. D., J. Biol.Chem. 241:2413–2420, 1966). The following modifications were made to the protocol: 2.5 μg of recombinant, human cytosolic glutathione-S-transferase (GST)-PEPCK was added to a reaction mixture at room temperature which contained 0.3 mM GTP, 0.3 mM oxaloacetate (OAA), 3 mM magnesium chloride (MgCl2), 0.075 mM manganese chloride (MnCl2), 30 mM potassium phosphates (KPO4), pH 7.6, 1 mM dithiothreitol (DTT), 0.2 mM adenosine diphosphate (ADP), 1 mM nicotinamide adenine dinucleotide, reduced form (NADH), 0.9 Units/ml each of pyruvate kinase and lactate dehydrogenase and 1 mg/ml bovine serum albumin (BSA). Test compounds were added such that final concentration of DMSO was 10%. Reactions were run for twenty minutes.
Km values for GTP and OAA were determined according to Michelis-Menton conditions as described in Cornish-Bowden (Fundamentals of Enzyme Kinetics, 1995) in essentially the coupled assay conditions described above. […] Test compounds were added to reactions over a range of concentrations and IC50's were calculated from plots of inhibitor concentration versus enzyme rate. This method of determination of IC50 values is equally applicable to calculations based on PEPCK cellular assay.
The in vitro biological activity of several representative preferred compounds of the present invention in the foregoing PEPCK enzymatic assay is presented in Table 1.

The molecule `CCCCn1c(=O)n(Cc2ccccc2)c(=O)c2[nH]c(Cc3ccc(N4C(=O)CCC4=O)cc3)nc21` [Example 65, 1-Benzyl-3-butyl-8-[4-(2,5-dioxo-pyrrolidin-1-yl)-benzyl]-3,7-dihydro-purine-2,6-dione] gave a melting point of 208 to 212 °C. Take `CC(=O)Nc1csc(C)c1C(=O)N(C)c1ccc(Cc2nc3c([nH]2)c(=O)n(Cc2ccccc2F)c(=O)n3CC2CC2)cc1` [Example 113, 4-Acetylamino-2-methyl-thiophene-3-carboxylic acid {4-[3-cyclopropylmethyl-1-(2-fluorobenzyl)-2,6-dioxo-2,3,6,7-tetrahydro-1H-purin-8-ylmethyl]-phenyl}-methyl-amide]: the IC50 in data set [1] was found to be 740 nM.

Consider `Cc1oncc1C(=O)N(C)c1ccc(Cc2nc3c([nH]2)c(=O)n(Cc2ccccc2F)c(=O)n3CC2CC2)cc1` [Example 114, 5-Methyl-isoxazole-4-carboxylic acid {4-[3-cyclopropylmethyl-1-(2-fluorobenzyl)-2,6-dioxo-2,3,6,7-tetrahydro-1H-purin-8-ylmethyl]-phenyl}-methyl-amide], for which, in data set [1], the IC50 was 740 nM.

As to `CN(C(=O)c1sccc1C(N)=O)c1ccc(Cc2nc3c([nH]2)c(=O)n(Cc2ccccc2F)c(=O)n3CC2CC2)cc1` [Example 115, Thiophene-2,3-dicarboxylic acid 3-amide 2-({4-[3-cyclopropylmethyl-1-(2-fluorobenzyl)-2,6-dioxo-2,3,6,7-tetrahydro-1H-purin-8-ylmethyl]-phenyl}-methyl-amide)], the IC50 in data set [1] stood at 930 nM. On to `CCN(C(=O)c1c(C)nn(C)c1C)c1ccc(Cc2nc3c([nH]2)c(=O)n(Cc2ccccc2F)c(=O)n3CC2CC2)cc1` [Example 117, 1,3,5-Trimethyl-1H-pyrazole-4-carboxylic acid {4-[3-cyclopropylmethyl-1-(2-fluorobenzyl)-2,6-dioxo-2,3,6,7-tetrahydro-1H-purin-8-ylmethyl]-phenyl}-ethyl-amide], for which, in data set [1], the half-maximal inhibitory concentration (IC50) stood at 190 nM. Regarding `CCCCN(C(=O)c1ccc(C)nc1)c1ccc(Cc2nc3c([nH]2)c(=O)n(Cc2ccccc2F)c(=O)n3CCCC)cc1` [Example 118, N-Butyl-N-{4-[3-butyl-1-(2-fluorobenzyl)-2,6-dioxo-2,3,6,7-tetrahydro-1H-purin-8-ylmethyl]-phenyl}-6-methyl-nicotinamide], the IC50 in data set [1] is 560 nM.

On to `Cc1ccc(C(=O)N(c2ccc(Cc3nc4c([nH]3)c(=O)n(Cc3ccccc3F)c(=O)n4CC3CC3)cc2)C(C)C)cn1` [Example 119, N-{4-[3-Cyclopropylmethyl-1-(2-fluorobenzyl)-2,6-dioxo-2,3,6,7-tetrahydro-1H-purin-8-ylmethyl]-phenyl}-N-isopropyl-6-methyl-nicotinamide], for which the IC50 in data set [1] is 310 nM.

On to `CC(C)N(C(=O)Cc1cccnc1)c1ccc(Cc2nc3c([nH]2)c(=O)n(Cc2ccccc2F)c(=O)n3CC2CC2)cc1` [Example 120, N-{4-[3-Cyclopropylmethyl-1-(2-fluorobenzyl)-2,6-dioxo-2,3,6,7-tetrahydro-1H-purin-8-ylmethyl]-phenyl}-N-isopropyl-2-pyridin-3-yl-acetamide], for which the IC50 in data set [1] stood at 400 nM.

Turning to `Cc1ccc(C(=O)N(CC2CCC2)c2ccc(Cc3nc4c([nH]3)c(=O)n(Cc3ccccc3F)c(=O)n4CC3CCC3)cc2)cn1` [Example 121, N-Cyclobutylmethyl-N-{4-[3-cyclobutylmethyl-1-(2-fluorobenzyl)-2,6-dioxo-2,3,6,7-tetrahydro-1H-purin-8-ylmethyl]-phenyl}-6-methyl-nicotinamide], in data set [1], the concentration for half-maximal inhibition (IC50) stood at 390 nM.
